{"source": "patent US20110053773A1", "about": "“METHODS OF IMPROVING NUTRITIONAL VALUE OF PLANTS” (UNIVERSITY OF TENNESSEE RESEARCH FOUNDATION, priority 2009, published 2011)", "key": {"basil 'Genovese'": {"test_system": "basil 'Genovese'", "assay": "Visual injury of basil after insecticide, fungicide, PGRs, safeners (Example 4)", "summary_of_the_method": "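Read-out: percent visual injury, 0 (no visual response) to 100 (complete plant death), covering general phytotoxicity, chlorosis and stunting. Treatments were chlorpyrifos, chlorothalonil, mepiquat-chloride, paclobutrazol, napthalic anhydride, isoxadifen-ethyl, applied postemergence. Harvest at ~4 weeks.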"}, "kale 'Red Russian'": {"test_system": "kale 'Red Russian'", "assay": "Content analysis of kale: protein, amino acids, fiber, fatty acids, minerals (Example 4, Tables 12-14)", "format": "in vivo", "settings": "28 DA-A; for Alanine, Percent Increase over the Untreated Check (on a % dry matter basis) / Aspartic acid, Percent Increase over the Untreated Check (on a % dry matter basis) / Cysteine, Percent Increase over the Untreated Check (on a % dry matter basis) / Glutamic acid, Percent Increase over the Untreated Check (on a % dry matter basis) / Glycine, Percent Increase over the Untreated Check (on a % dry matter basis) / Iso-leucine, Percent Increase over the Untreated Check (on a % dry matter basis) / Leucine, Percent Increase over the Untreated Check (on a % dry matter basis) / Lysine, Percent Increase over the Untreated Check (on a % dry matter basis) / Methionine, Percent Increase over the Untreated Check (on a % dry matter basis) / Proline, Percent Increase over the Untreated Check (on a % dry matter basis) / Threonine, Percent Increase over the Untreated Check (on a % dry matter basis) / Total Amino acids, Percent Increase over the Untreated Check (on a % dry matter basis) / Total Protein, Percent Increase over the Untreated Check (on a % dry matter basis) / Valine, Percent Increase over the Untreated Check (on a % dry matter basis): chlorothalonil ###", "protocol": "Greenhouse and laboratory studies were conducted to ascertain the tolerance and nutritional quality differences following postemergence applications of the insecticide chlorpyrifos, the fungicide chlorothalonil, the PGRs mepiquat-chloride and paclobutrazol, and the safeners napthalic anhydride and isoxadifen-ethyl on kale ‘Red Russian’ and basil ‘Genovese’. Visual injury was rated based on general phytotoxicity, chlorosis, and visual stunting and each measurement was based on a percent scale from 0 to 100 where 0 equals no visual response and 100 equals complete plant death. Kale and basil were both harvested approximately 4 weeks after treatments and plants were pooled over replicates for content analysis of crude protein, crude amino acid content, acid detergent fiber, neutral detergent fiber, total fatty acids, and/or key mineral content (including Na, Ca, P, Mg, K, Fe, Mn, Zn, and Cu). In addition, the amounts of key individual amino acids (aspartic acid, threonine, glutamic acid, proline, glycine, cysteine, valine, leucine, isoleucine, methionine, and lysine) and composite classifications of fatty acid (saturated fatty acids, monounsaturated fatty acids, polyunsaturated fatty acids) were also analyzed from these sub-samples for kale (Tables 10-14)."}, "[1]": {"settings": "14 DA-A, rates g ai/ha: chlropyrifos 3370, chlorothalonil 7900, paclobutrazol 9.7, mepiquat-chloride 37, Isoxadifen 16, Napthalic anhydride 527, + NIS 0.25 % v/v"}, "[2]": {"settings": "28 DA-A, rates g ai/ha: chlropyrifos 1120, chlorothalonil 2630, paclobutrazol 3.23, mepiquat-chloride 12.3, Isoxadifen 8, Napthalic anhydride 264, + NIS 0.25 % v/v"}, "[3]": {"settings": "28 DA-A, rates g ai/ha: chlropyrifos 3370, chlorothalonil 7900, paclobutrazol 9.7, mepiquat-chloride 37, Isoxadifen 16, Napthalic anhydride 527, + NIS 0.25 % v/v"}, "[4]": {"settings": "first-listed rate g ai/ha: chlropyrifos ###, paclobutrazol 3.2, mepiquat-chloride 12, + NIS 0.3 % v/v"}, "[5]": {"settings": "rates g ai/ha: chlropyrifos 1120, chlorothalonil 2630, paclobutrazol 3.23, mepiquat-chloride 12.3, + NIS 0.25 % v/v"}, "[6]": {"settings": "rates g ai/ha: chlropyrifos 3370, chlorothalonil 7900, paclobutrazol 9.7, mepiquat-chloride 37, + NIS 0.25 % v/v"}, "[7]": {"settings": "second-listed rate g ai/ha: chlropyrifos ###, paclobutrazol 9.7, mepiquat-chloride 37, + NIS 0.3 % v/v"}}, "data": [{"compound": "N#Cc1c(Cl)c(Cl)c(Cl)c(C#N)c1Cl", "note": "[chlorothalonil]", "values": [{"measurement": "Phytotoxicity General", "setting": "basil 'Genovese'; [1]", "value": 2, "unit": "%"}, {"measurement": "Phytotoxicity Stunting", "setting": "basil 'Genovese'; [1]", "value": 7, "unit": "%"}, {"measurement": "Phytotoxicity Chlorosis", "setting": "basil 'Genovese'; [2]", "value": 5, "unit": "%"}, {"measurement": "Phytotoxicity General", "setting": "basil 'Genovese'; [2]", "value": 10, "unit": "%"}, {"measurement": "Phytotoxicity Stunting", "setting": "basil 'Genovese'; [2]", "value": 7, "unit": "%"}, {"measurement": "Phytotoxicity Chlorosis", "setting": "basil 'Genovese'; [3]", "value": 10, "unit": "%"}, {"measurement": "Phytotoxicity General", "setting": "basil 'Genovese'; [3]", "value": 3, "unit": "%"}, {"measurement": "Phytotoxicity Stunting", "setting": "basil 'Genovese'; [3]", "value": 10, "unit": "%"}, {"measurement": "Alanine, Percent Increase over the Untreated Check (on a % dry matter basis)", "setting": "kale 'Red Russian'; [4]", "value": 3, "unit": "% check"}, {"measurement": "Aspartic acid, Percent Increase over the Untreated Check (on a % dry matter basis)", "setting": "kale 'Red Russian'; [4]", "value": 2, "unit": "% check"}, {"measurement": "Cysteine, Percent Increase over the Untreated Check (on a % dry matter basis)", "setting": "kale 'Red Russian'; [4]", "value": "−6", "unit": "% check"}, {"measurement": "Glutamic acid, Percent Increase over the Untreated Check (on a % dry matter basis)", "setting": "kale 'Red Russian'; [4]", "value": 5, "unit": "% check"}, {"measurement": "Glycine, Percent Increase over the Untreated Check (on a % dry matter basis)", "setting": "kale 'Red Russian'; [4]", "value": 0, "unit": "% check"}, {"measurement": "Iso-leucine, Percent Increase over the Untreated Check (on a % dry matter basis)", "setting": "kale 'Red Russian'; [4]", "value": 4, "unit": "% check"}, {"measurement": "Leucine, Percent Increase over the Untreated Check (on a % dry matter basis)", "setting": "kale 'Red Russian'; [4]", "value": 4, "unit": "% check"}, {"measurement": "Lysine, Percent Increase over the Untreated Check (on a % dry matter basis)", "setting": "kale 'Red Russian'; [4]", "value": 5, "unit": "% check"}, {"measurement": "Methionine, Percent Increase over the Untreated Check (on a % dry matter basis)", "setting": "kale 'Red Russian'; [4]", "value": 2, "unit": "% check"}, {"measurement": "Proline, Percent Increase over the Untreated Check (on a % dry matter basis)", "setting": "kale 'Red Russian'; [4]", "value": 6, "unit": "% check"}, {"measurement": "Threonine, Percent Increase over the Untreated Check (on a % dry matter basis)", "setting": "kale 'Red Russian'; [4]", "value": 3, "unit": "% check"}, {"measurement": "Total Amino acids, Percent Increase over the Untreated Check (on a % dry matter basis)", "setting": "kale 'Red Russian'; [4]", "value": 3, "unit": "% check"}, {"measurement": "Total Protein, Percent Increase over the Untreated Check (on a % dry matter basis)", "setting": "kale 'Red Russian'; [4]", "value": 1, "unit": "% check"}, {"measurement": "Valine, Percent Increase over the Untreated Check (on a % dry matter basis)", "setting": "kale 'Red Russian'; [4]", "value": 4, "unit": "% check"}, {"measurement": "ADF, Percent Increase Over the Untreated Check (on a % dry matter basis)", "setting": "kale 'Red Russian'; [5]", "value": 9, "unit": "% check"}, {"measurement": "Calcium, Percent Increase Over the Untreated Check (on a % dry matter basis)", "setting": "kale 'Red Russian'; [5]", "value": "−6", "unit": "% check"}, {"measurement": "Copper, Percent Increase Over the Untreated Check (on a % dry matter basis)", "setting": "kale 'Red Russian'; [5]", "value": 6, "unit": "% check"}, {"measurement": "Iron, Percent Increase Over the Untreated Check (on a % dry matter basis)", "setting": "kale 'Red Russian'; [5]", "value": "−1", "unit": "% check"}, {"measurement": "Magnesium, Percent Increase Over the Untreated Check (on a % dry matter basis)", "setting": "kale 'Red Russian'; [5]", "value": "−3", "unit": "% check"}, {"measurement": "Manganese, Percent Increase Over the Untreated Check (on a % dry matter basis)", "setting": "kale 'Red Russian'; [5]", "value": 3, "unit": "% check"}, {"measurement": "NDF, Percent Increase Over the Untreated Check (on a % dry matter basis)", "setting": "kale 'Red Russian'; [5]", "value": "−8", "unit": "% check"}, {"measurement": "Phosphorous, Percent Increase Over the Untreated Check (on a % dry matter basis)", "setting": "kale 'Red Russian'; [5]", "value": 0, "unit": "% check"}, {"measurement": "Potassium, Percent Increase Over the Untreated Check (on a % dry matter basis)", "setting": "kale 'Red Russian'; [5]", "value": "−9", "unit": "% check"}, {"measurement": "Sodium, Percent Increase Over the Untreated Check (on a % dry matter basis)", "setting": "kale 'Red Russian'; [5]", "value": 4, "unit": "% check"}, {"measurement": "Zinc, Percent Increase Over the Untreated Check (on a % dry matter basis)", "setting": "kale 'Red Russian'; [5]", "value": "−4", "unit": "% check"}, {"measurement": "ADF, Percent Increase Over the Untreated Check (on a % dry matter basis)", "setting": "kale 'Red Russian'; [6]", "value": 0, "unit": "% check"}, {"measurement": "Calcium, Percent Increase Over the Untreated Check (on a % dry matter basis)", "setting": "kale 'Red Russian'; [6]", "value": "−1", "unit": "% check"}, {"measurement": "Copper, Percent Increase Over the Untreated Check (on a % dry matter basis)", "setting": "kale 'Red Russian'; [6]", "value": 6, "unit": "% check"}, {"measurement": "Iron, Percent Increase Over the Untreated Check (on a % dry matter basis)", "setting": "kale 'Red Russian'; [6]", "value": "−3", "unit": "% check"}, {"measurement": "Magnesium, Percent Increase Over the Untreated Check (on a % dry matter basis)", "setting": "kale 'Red Russian'; [6]", "value": "−3", "unit": "% check"}, {"measurement": "Manganese, Percent Increase Over the Untreated Check (on a % dry matter basis)", "setting": "kale 'Red Russian'; [6]", "value": 4, "unit": "% check"}, {"measurement": "NDF, Percent Increase Over the Untreated Check (on a % dry matter basis)", "setting": "kale 'Red Russian'; [6]", "value": "−5", "unit": "% check"}, {"measurement": "Phosphorous, Percent Increase Over the Untreated Check (on a % dry matter basis)", "setting": "kale 'Red Russian'; [6]", "value": "−3", "unit": "% check"}, {"measurement": "Potassium, Percent Increase Over the Untreated Check (on a % dry matter basis)", "setting": "kale 'Red Russian'; [6]", "value": "−3", "unit": "% check"}, {"measurement": "Sodium, Percent Increase Over the Untreated Check (on a % dry matter basis)", "setting": "kale 'Red Russian'; [6]", "value": 23, "unit": "% check"}, {"measurement": "Zinc, Percent Increase Over the Untreated Check (on a % dry matter basis)", "setting": "kale 'Red Russian'; [6]", "value": "−3", "unit": "% check"}, {"measurement": "Alanine, Percent Increase over the Untreated Check (on a % dry matter basis)", "setting": "kale 'Red Russian'; [7]", "value": "−5", "unit": "% check"}, {"measurement": "Aspartic acid, Percent Increase over the Untreated Check (on a % dry matter basis)", "setting": "kale 'Red Russian'; [7]", "value": "−4", "unit": "% check"}, {"measurement": "Cysteine, Percent Increase over the Untreated Check (on a % dry matter basis)", "setting": "kale 'Red Russian'; [7]", "value": "−6", "unit": "% check"}, {"measurement": "Glutamic acid, Percent Increase over the Untreated Check (on a % dry matter basis)", "setting": "kale 'Red Russian'; [7]", "value": "−5", "unit": "% check"}, {"measurement": "Glycine, Percent Increase over the Untreated Check (on a % dry matter basis)", "setting": "kale 'Red Russian'; [7]", "value": "−7", "unit": "% check"}, {"measurement": "Iso-leucine, Percent Increase over the Untreated Check (on a % dry matter basis)", "setting": "kale 'Red Russian'; [7]", "value": "−2", "unit": "% check"}, {"measurement": "Leucine, Percent Increase over the Untreated Check (on a % dry matter basis)", "setting": "kale 'Red Russian'; [7]", "value": "−1", "unit": "% check"}, {"measurement": "Lysine, Percent Increase over the Untreated Check (on a % dry matter basis)", "setting": "kale 'Red Russian'; [7]", "value": "−3", "unit": "% check"}, {"measurement": "Methionine, Percent Increase over the Untreated Check (on a % dry matter basis)", "setting": "kale 'Red Russian'; [7]", "value": "−2", "unit": "% check"}, {"measurement": "Proline, Percent Increase over the Untreated Check (on a % dry matter basis)", "setting": "kale 'Red Russian'; [7]", "value": "−3", "unit": "% check"}, {"measurement": "Threonine, Percent Increase over the Untreated Check (on a % dry matter basis)", "setting": "kale 'Red Russian'; [7]", "value": "−1", "unit": "% check"}, {"measurement": "Total Amino acids, Percent Increase over the Untreated Check (on a % dry matter basis)", "setting": "kale 'Red Russian'; [7]", "value": "−4", "unit": "% check"}, {"measurement": "Total Protein, Percent Increase over the Untreated Check (on a % dry matter basis)", "setting": "kale 'Red Russian'; [7]", "value": "−3", "unit": "% check"}, {"measurement": "Valine, Percent Increase over the Untreated Check (on a % dry matter basis)", "setting": "kale 'Red Russian'; [7]", "value": "−3", "unit": "% check"}]}]}
